Measurements from patent US20240368219A1, “ACTIVATION OF E6AP/UBE3A-MEDIATED PROTEIN UBIQ[…] D[…] BY A CYCLIC GAMMA-AA PEPTIDE” (University of South Florida, priority 2022, published 2024).
Several values for one entry are separate records, joined by “and”; a condition that tells them apart may be missing. Equal values may be shown once.

Experiments:
HECT domain of E6AP = biological target: T1, HECT domain of E6AP (Homo sapiens, UniProt Q05086); assay: Fluorescence polarization binding affinity of FITC-labeled peptides with the E6AP HECT domain; conditions: Kd of the peptide-HECT complex
T1 construct: serial dilution of E6AP HECT domain; inferred from pET28a vector and Ni-NTA purification; made in house; host or cells: E. coli BL21 (DE3) pLysS, plasmid pET28a-E6AP HECT
T1 sequence (Q05086 518-875 limits assumed): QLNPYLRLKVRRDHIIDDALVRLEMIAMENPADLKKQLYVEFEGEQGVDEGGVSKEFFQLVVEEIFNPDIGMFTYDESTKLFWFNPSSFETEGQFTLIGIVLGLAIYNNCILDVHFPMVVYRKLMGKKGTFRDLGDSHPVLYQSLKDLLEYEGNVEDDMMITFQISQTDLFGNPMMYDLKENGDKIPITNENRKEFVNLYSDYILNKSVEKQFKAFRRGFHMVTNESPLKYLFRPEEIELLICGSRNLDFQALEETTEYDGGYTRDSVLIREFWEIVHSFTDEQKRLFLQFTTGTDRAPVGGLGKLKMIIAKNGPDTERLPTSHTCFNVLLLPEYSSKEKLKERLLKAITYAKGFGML
Description: The library was screened based on the binding between the bead-anchored peptides with the HECT domain of E6AP with an N-terminal Flag tag that was recognized by an anti-Flag antibody labeled with AlexaFluor 488 that would emit green fluorescence. […] The peptide ligands from the screen were named P1-8 and they were resynthesized to measure their individual binding affinities with the HECT domain by fluorescence polarization (FP).
The binding affinity (Kd) of the peptides were measured by fluorescence polarization. Briefly, a constant amount of the 100 nM FITC-labeled cyclic peptide was incubated with a serial dilution of E6AP HECT domain. The Kd values was calculated using the following equation, in which the Lst and x refer to the concentration of peptide and protein, respectively.

[1] = Serum stability assay (25% serum, HPLC); format: in vitro ADME, human; conditions: 25% serum (v/v), 37° C., 24 h
Description: (§1) A distinctive characteristic of γ-AA peptides compared with canonical peptides is their remarkable resistance to protease. To assay the stability of P6 in presence of protease, P6 was incubated with 0.1 mg/mL pronase at 37° C. for 24 h.
The serum stabilities of peptides were determined in 25% (v/v) aqueous pooled serum from human male AB plasma (Sigma-Aldrich, Milan, Italy). 1 mg P6 was dissolved in 50 μL CH3CN/H2O (70:30, v/v) and then diluted in serum and incubated at 37° C. for 24 h. Then, 100 μL of solution was added to 100 μL of CH3CN on ice for 15 min and was centrifuged at 4° C. for 10 min. The supernatant was then analyzed by a Waters analytical HPLC system with a 1 mL/min flow rate and 5-100% linear gradient of solvent B (0.1% TFA in acetonitrile) in A (0.1% TFA in water) over the duration of 50 min. The UV detector was set to 215 nm.

pronase = assay: Enzymatic stability study with pronase (HPLC, MS); format: in vitro ADME; conditions: 0.1 mg/mL pronase, 37° C., 24 h
Description: as §1
0.01 mg/mL P6 was incubated with 0.1 mg/mL pronase in 100 mM ammonium bicarbonate buffer (pH 7.8) at 37° C. for 24 h. The reaction mixture was concentrated in a speed vacuum to remove the water and ammonium bicarbonate. The remains were dissolved in 100 μL H2O/CH3CN and analyzed by a Waters analytical HPLC system with a 1 mL/min flow rate and 5-100% linear gradient of solvent B (0.1% TFA in acetonitrile) in A (0.1% TFA in water) over the duration of 50 min. The UV detector was set to 215 nm.

Row | SMILES | Kd (HECT domain of E6AP) | stability in human serum [1] | stability in presence of protease (pronase)
1 | CC(C)C[C@H]1CN(CC(N)=O)C(=O)CCSCc2ccc(cc2)C(=O)N[C@@H](Cc2ccccc2)CN(C(=O)Cc2ccc3ccccc3c2)CC(=O)N[C@@H](CC(C)C)CN(C(=O)CCC2CCCCC2)CC(=O)N[C@@H](Cc2ccccc2)CN(C(=O)Cc2ccc3c(c2)OCO3)CC(=O)N1 [P4] | 80 to 218 nM |  | 
2 | COc1cc(CC(=O)N2CC(=O)N[C@@H](C)CN(C(=O)Cc3cc(OC)cc(OC)c3)CC(=O)N[C@@H](CC(C)C)CN(CC(N)=O)C(=O)CCSCc3ccc(cc3)C(=O)N[C@@H](Cc3ccccc3)CN(C(=O)Cc3ccc4c(c3)OCO4)CC(=O)N[C@@H](Cc3ccccc3)C2)cc(OC)c1 [P7] | 80 to 218 nM |  | 
3 | C[C@H]1CN(C(=O)Cc2ccc3c(c2)OCO3)CC(=O)N[C@@H](Cc2ccccc2)CN(C(=O)Cc2ccc3ccccc3c2)CC(=O)N[C@@H](CCC(=O)O)CN(C(=O)CC2CC2)CC(=O)N[C@@H](Cc2ccccc2)CN(CC(N)=O)C(=O)CCSCc2ccc(cc2)C(=O)N1 [P8] | 80 to 218 nM |  | 
4 | COc1cc(CC(=O)N2CC(=O)N[C@@H](Cc3ccccc3)CN(C(=O)CC3CC3)CC(=O)N[C@@H](CC(C)C)CN(CC(N)=O)C(=O)CCSCc3ccc(cc3)C(=O)N[C@@H](CCCCN)CN(C(=O)Cc3ccc4ccccc4c3)CC(=O)N[C@@H](CC(C)C)C2)cc(OC)c1 [P6] | 80 to 218 nM and 218 nM | stability was confirmed | resistant to protease cleavage
5 | CC(C)C[C@H]1CN(CC(N)=O)C(=O)CCSCc2ccc(cc2)C(=O)N[C@@H](C)CN(C(=O)Cc2ccc3ccccc3c2)CC(=O)N[C@@H](CC(C)C)CN(C(=O)CCc2ccccc2)CC(=O)N[C@@H](Cc2ccccc2)CN(C(=O)Cc2ccc3c(c2)OCO3)CC(=O)N1 [P3] | 80 to 218 nM |  | 
6 | COc1cc(CC(=O)N2CC(=O)N[C@@H](Cc3ccccc3)CN(C(=O)CC3CC3)CC(=O)N[C@@H](CC(C)C)CN(CC(N)=O)C(=O)CCSCc3ccc(cc3)C(=O)N[C@@H](CCC(=O)O)CN(C(=O)Cc3ccc4c(c3)OCO4)CC(=O)N[C@@H](CC(C)C)C2)cc(OC)c1 [P5] | 80 to 218 nM |  | 
